Laboratory results from patent US8648094B2, “IAP BIR domain binding compounds” (Pharmascience, Inc., priority 2006, dated 2014).

Columns and labels:
SKOV-3 cells = assay: Survival MTT assay; type: cell-based; conditions: Homo sapiens, SK-OV-3, 72 hours
Procedure: (§1) One day prior the treatment with compound, 2000 to 4000 cells per well were plated in a tissue culture treated 96 well format dish with 100 uL of media and incubated at 37° C., 5% CO2. On the day of compound treatment, compounds were diluted with cell culture media to a working stock concentration of 2×. 100 ul of diluted compound were then added to each well. The treated plate was incubated for 72 hours at 37° C., 5% CO2. Upon incubation, the cell viability was assessed as follows; 20 uL of MTT reagent (5 mg/mL) were added per well to cell plate. The plate was incubated for 2 hrs at 37° C. in presence of 5% CO2. The supernatant was then removed from the plate and 100 uL of isopropanol was added. The absorbance was measured in a TECAN spectrophotometer at 570 nm. The percentage of viability was expressed in percentage of the signal obtained with non treated cells.

MDA-MB-231 cells = assay: Survival MTT assay; type: cell-based; conditions: Homo sapiens, 72 hours, read-out: MDA-MB231 EC50
Procedure: as §1

selected cell lines = assay: Hollow fiber in vivo model; conditions: compared to fibers from vehicle treated control mice
Procedure: At day 1, selected cell lines are cultured and the fiber filled at a cell density of about 40,000 cells/fiber. At the day of operation (day 4), three fibers are implanted sub-cutaneous into 28-35 Nu/Nu CD-1 male mice. On day 5, mice start to receive daily injection via sub-cutaneous route of control vehicle or vehicle containing the selected compound at the appropriate concentration and/or injection of cytotoxic agent via intra-peritoneal route. Upon 4 days of consecutive treatments, the animals are sacrificed, each fiber is removed and the metabolic viability of the remaining cells determined by MTT assay. Efficacy of the compound is define as the difference between the vehicle-treated animal and the animal treated with the compound alone or the compound given in combination of the cytotoxic agent

A2780S ovarian cells = assay: Potentiation of TRAIL efficacy in survival assay; type: cell-based; conditions: 10 nM of compound
c-IAP1 = molecular target: T1, c-IAP1 (Homo sapiens, UniProt Q13490); assay: Detection of c-IAP1 in cells by western blotting; type: cell-based; conditions: HCT116 cells, overnight treatment
T1 construct: endogenous in cells; host or cells: HCT116
T1 sequence (Q13490 whole entry): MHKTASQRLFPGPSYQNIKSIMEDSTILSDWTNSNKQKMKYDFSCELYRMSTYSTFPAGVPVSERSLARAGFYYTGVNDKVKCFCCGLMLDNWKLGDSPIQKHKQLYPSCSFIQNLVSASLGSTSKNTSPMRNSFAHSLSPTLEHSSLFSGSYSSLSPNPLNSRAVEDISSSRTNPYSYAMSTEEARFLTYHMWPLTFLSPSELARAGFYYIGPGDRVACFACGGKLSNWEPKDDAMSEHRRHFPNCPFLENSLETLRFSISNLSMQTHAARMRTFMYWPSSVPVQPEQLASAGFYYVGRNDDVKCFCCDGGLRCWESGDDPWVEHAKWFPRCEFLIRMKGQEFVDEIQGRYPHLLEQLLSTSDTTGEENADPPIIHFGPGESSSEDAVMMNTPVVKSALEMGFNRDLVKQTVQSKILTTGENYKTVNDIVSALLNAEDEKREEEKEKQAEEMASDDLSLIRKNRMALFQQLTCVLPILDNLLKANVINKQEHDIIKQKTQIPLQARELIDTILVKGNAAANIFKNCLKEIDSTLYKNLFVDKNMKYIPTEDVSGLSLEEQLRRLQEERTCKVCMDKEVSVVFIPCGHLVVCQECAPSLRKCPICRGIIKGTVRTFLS
Procedure: Detection of cell expressed XIAP and PARP were done by western blotting. Cells were plated at 300 000 cells/well in a 60 mm wells (6 wells plate dish). The next day the cells were treated with selected compound at the indicated concentration. […] The resulting pellet was rinsed twice with cold TBS. The final washed pellet of cells was the lysed with 250 ul Lysis buffer (NP-40, glycerol, 1% of a protease inhibitor cocktail (Sigma)), placed at 4° C. for 25 min with gentle shaking. The cells extract was centrifuged at 4° C. for 10 min at 10 000 rpm. Both the supernatant and the pellet were kept for western blotting analysis as described below. From the supernatant, the protein content was evaluated and about 50 ug of protein was fractionated onto a 10% SDS-PAGE. Pellets were washed with the lysis buffer and re-suspend into 50 ul of Lamelli buffer 1×, boiled and fractionated on SDS-PAGE. Upon electrophoresis each gel was electro-transferred onto a nitrocellulose membrane at 0.6 A for 2 hours. Membrane non-specific sites were blocked for 1 hours with 5% Skim milk in TBST (TBS containing 0.1% (v/v) Tween-20) at RT. For protein immuno-detection, membranes were incubated overnight with primary antibodies raised against various IAPs or caspase-3 or caspase-9 primary antibodies were incubated at 4° C. with shaking at dilutions as follows:
Upon overnight incubation, the membranes received three washes of 15 min in TBST then were incubated for 1 hour at room temperature in the presence of a secondary antibody coupled with HRP-enzyme (Chemicon) and diluted at 1/5 000. Upon incubation each membrane were washed three times with TBST and the immunoreactive bands were detected by addition of a luminescent substrate (ECL kit Amersham) and capture of signal on a X-RAY film for various time of exposure.

HCT116 colorectal cells = assay: Potentiation of TRAIL efficacy in survival assay; type: cell-based, human; conditions: 10 nM of compound
Procedure: Survival assays were preformed on the following transformed human cancer cell lines, MDA-MB-231, SKOV-3, H460, PC3, HCT-116, and SW480 cells. Cells were seeded in 96 well plates at a respective density of 5000 and 2000 cells per well and incubated at 37° C. in presence of 5% CO2 for 24 hours. Selected compounds were diluted into the media at various concentration ranging from 0.00001 uM up to 100 uM. Diluted compounds were added to the culture media. For the MDA-MB-231 SKOV3, H460, PC3, HCT-116, and SW480 cells, the compounds were added either alone or in presence of 1-3 ng/ml of TRAIL. After 48-72 hours cellular viability was evaluated by MTS based assays. A solution of [3-(4,5-dimethylthiazol-2-yl)-5-(3-carboxymethoxyphenyl)-2-(4-sulfophenyl)-2H-tetrazolium, inner salt; MTS] was added onto cells for a period of 1 to 4 hours. Upon incubation the amount of converted MTS was evaluated using a Tecan spectrophotometer set at 570 nm.

Row | c-IAP1 levels (c-IAP1) | Structure (SMILES) | EC50 (SKOV-3 cells) [nM] | EC50 (MDA-MB-231 cells) [nM] | further results
1 |  | CN[C@@H](C)C(=O)N[C@H](C(=O)N1CCC[C@H]1CN(CCc1ccc(F)cc1)C(=O)CCCCCCCCC(=O)N(CCc1ccc(F)cc1)C[C@@H]1CCCN1C(=O)[C@@H](NC(=O)[C@H](C)NC)C(C)(C)C)C(C)(C)C [Compound 29] | 10 to 25 | < 10 | 
2 |  | CN[C@@H](C)C(=O)N[C@H](C(=O)N1CCC[C@H]1CN(CCc1ccccc1)C(=O)c1ccc2cc(C(=O)N(CCc3ccccc3)C[C@@H]3CCCN3C(=O)[C@@H](NC(=O)[C@H](C)NC)C(C)(C)C)ccc2c1)C(C)(C)C [Compound 56] | < 10 |  | decrease in MTT signal in fibers from treated mice (selected cell lines): 70%
3 |  | CN[C@@H](C)C(=O)N[C@H](C(=O)N1CCC[C@H]1CN(CCc1ccccc1)C(=O)CNC(=O)c1ccc(C(=O)NCC(=O)N(CCc2ccccc2)C[C@@H]2CCCN2C(=O)[C@@H](NC(=O)[C@H](C)NC)C(C)(C)C)cc1)C(C)(C)C [Compound 35] | < 10 | < 10 | potentiated TRAIL efficacy (A2780S ovarian cells): approximately 2 logs
4 | reduced | CN[C@@H](C)C(=O)N[C@H](C(=O)N1CCC[C@H]1CN(CCCCc1ccccc1)C(=O)CCCCCCCCC(=O)N(CCCCc1ccccc1)C[C@@H]1CCCN1C(=O)[C@@H](NC(=O)[C@H](C)NC)C(C)(C)C)C(C)(C)C [Compound 40] |  |  | 
5 |  | CN[C@@H](C)C(=O)N[C@H](C(=O)N1CCC[C@H]1CN(CCc1ccccc1)C(=O)Nc1ccc(NC(=O)N(CCc2ccccc2)C[C@@H]2CCCN2C(=O)[C@@H](NC(=O)[C@H](C)NC)C(C)(C)C)cc1)C(C)(C)C [Compound 20] | 10 to 25 | < 10 | 
6 | reduced | CN[C@@H](C)C(=O)N[C@H](C(=O)N1CCC[C@H]1CN(CCc1ccccc1)C(=O)CCNC(=O)c1ccc(C(=O)NCCC(=O)N(CCc2ccccc2)C[C@@H]2CCCN2C(=O)[C@@H](NC(=O)[C@H](C)NC)C(C)(C)C)cc1)C(C)(C)C [Compound 91] | 10 to 25 |  | 
7 | reduced | CN[C@@H](C)C(=O)N[C@H](C(=O)N1CCC[C@H]1CN(CCc1ccc(C(F)(F)F)cc1)C(=O)CCCCCCCCC(=O)N(CCc1ccc(C(F)(F)F)cc1)C[C@@H]1CCCN1C(=O)[C@@H](NC(=O)[C@H](C)NC)C(C)(C)C)C(C)(C)C [Compound 67] |  |  | 
8 | reduced | CN[C@@H](C)C(=O)N[C@H](C(=O)N1CCC[C@H]1CN(CCc1ccccc1)C(=O)CNC(=O)c1ccc(-c2ccc(C(=O)NCC(=O)N(CCc3ccccc3)C[C@@H]3CCCN3C(=O)[C@@H](NC(=O)[C@H](C)NC)C(C)(C)C)cc2)cc1)C(C)(C)C [Compound 45] | < 10 |  | 
9 | reduced | CN[C@@H](C)C(=O)N[C@H](C(=O)N1CCC[C@H]1CN(Cc1cccc(C(F)(F)F)c1)C(=O)CCCCCCCCC(=O)N(Cc1cccc(C(F)(F)F)c1)C[C@@H]1CCCN1C(=O)[C@@H](NC(=O)[C@H](C)NC)C(C)(C)C)C(C)(C)C [Compound 100] |  |  | 
10 | reduced | CN[C@@H](C)C(=O)N[C@H](C(=O)N1CCC[C@H]1CN(CCc1ccccc1)C(=O)CNC(=O)c1cccc(C(=O)NCC(=O)N(CCc2ccccc2)C[C@@H]2CCCN2C(=O)[C@@H](NC(=O)[C@H](C)NC)C(C)(C)C)c1)C(C)(C)C [Compound 44] | < 10 |  | 
11 |  | CN[C@@H](C)C(=O)N[C@H](C(=O)N1CCC[C@H]1CN(C[C@H](C)c1ccccc1)C(=O)CCCCCCCCC(=O)N(C[C@@H]1CCCN1C(=O)[C@@H](NC(=O)[C@H](C)NC)C(C)(C)C)C[C@H](C)c1ccccc1)C(C)(C)C [Compound 21] | < 10 | < 10 | 
12 |  | CN[C@@H](C)C(=O)N[C@H](C(=O)N1CCC[C@H]1CN(CCc1ccccc1)C(=O)c1ccc(C(=O)N(CCc2ccccc2)C[C@@H]2CCCN2C(=O)[C@@H](NC(=O)[C@H](C)NC)C(C)(C)C)s1)C(C)(C)C [Compound 26] | 10 to 25 | < 10 | 

Row | Structure (SMILES) | c-IAP1 levels (c-IAP1) | EC50 (SKOV-3 cells) [nM] | EC50 (MDA-MB-231 cells) [nM] | further results
13 | CN[C@@H](C)C(=O)N[C@H](C(=O)N1CCC[C@H]1CN(CCc1ccccc1)C(=O)CNC(=O)C(=O)NCC(=O)N(CCc1ccccc1)C[C@@H]1CCCN1C(=O)[C@@H](NC(=O)[C@H](C)NC)C(C)(C)C)C(C)(C)C [Compound 31] | reduced | < 10 | < 10 | potentiated TRAIL efficacy (HCT116 colorectal cells): approximately 2 logs; decrease in MTT signal in fibers from treated mice (selected cell lines): 70%
